Laboratory results published in patent US20250215029A1 (Recludix Pharma, Inc., priority 2022, published 2025).

What was measured:
[1] = molecular target: T1, Recombinant STAT3 protein (STAT3 (G127-I722)) (Homo sapiens, UniProt P40763); assay: STAT3 Fluorescence Polarization (FP) Assay; type: binding; settings: STAT3 (G127-I722) 25 nM, probe 5-FAM-GpYLPQTV-NH2 2 nM, 45-minute incubation; read-out: STAT3 (FP assay IC50 class)
T1 construct: Recombinant STAT3 protein (STAT3 (G127-I722))
Outline: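 Read-out is fluorescence polarization (mP) after 45 min at room temperature, with IC50 fitted by nonlinear regression against log compound concentration. Mixture: 25 nM STAT3 (G127-I722), 2 nM 5-FAM-GpYLPQTV-NH2 phosphopeptide, 10 mM HEPES pH 7.4 buffer, 1% DMSO.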

[2] = molecular target: T2, Recombinant STAT6 protein (STAT6 (W123-T658)) (Homo sapiens, UniProt P42226); assay: STAT6 Fluorescence Polarization (FP) Assay; type: binding; settings: STAT6 (W123-T658) 250 nM, probe 5-FAM-Ap[…]-NH2 2 nM, 45-minute incubation; read-out: STAT6 (FP assay IC50 class)
T2 construct: Recombinant STAT6 protein (STAT6 (W123-T658))
T2 sequence (P42226 123-658): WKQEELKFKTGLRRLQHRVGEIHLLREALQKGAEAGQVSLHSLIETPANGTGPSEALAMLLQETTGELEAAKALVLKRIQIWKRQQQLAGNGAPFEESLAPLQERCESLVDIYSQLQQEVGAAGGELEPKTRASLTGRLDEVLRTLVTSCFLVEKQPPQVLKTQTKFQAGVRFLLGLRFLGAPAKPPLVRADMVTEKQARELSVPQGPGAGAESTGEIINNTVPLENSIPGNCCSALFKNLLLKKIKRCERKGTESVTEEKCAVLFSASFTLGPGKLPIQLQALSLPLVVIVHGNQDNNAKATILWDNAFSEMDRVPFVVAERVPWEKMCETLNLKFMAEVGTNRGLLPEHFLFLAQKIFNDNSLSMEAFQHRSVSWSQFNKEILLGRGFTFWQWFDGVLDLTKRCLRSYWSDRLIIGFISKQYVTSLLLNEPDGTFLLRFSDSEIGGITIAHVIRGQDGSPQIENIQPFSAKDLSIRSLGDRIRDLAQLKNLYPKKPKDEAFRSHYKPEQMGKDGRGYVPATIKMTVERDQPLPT
Outline: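 Recombinant STAT6 (W123-T658) at 250 nM mixed with 2 nM 5-FAM phosphotyrosine peptide probe in HEPES pH 7.4 buffer with DTT, 1% DMSO final, added to serially diluted compounds. FP (mP) read after 45 min at room temperature; IC50 by nonlinear regression vs log concentration.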

T1 sequence (P40763 127-722): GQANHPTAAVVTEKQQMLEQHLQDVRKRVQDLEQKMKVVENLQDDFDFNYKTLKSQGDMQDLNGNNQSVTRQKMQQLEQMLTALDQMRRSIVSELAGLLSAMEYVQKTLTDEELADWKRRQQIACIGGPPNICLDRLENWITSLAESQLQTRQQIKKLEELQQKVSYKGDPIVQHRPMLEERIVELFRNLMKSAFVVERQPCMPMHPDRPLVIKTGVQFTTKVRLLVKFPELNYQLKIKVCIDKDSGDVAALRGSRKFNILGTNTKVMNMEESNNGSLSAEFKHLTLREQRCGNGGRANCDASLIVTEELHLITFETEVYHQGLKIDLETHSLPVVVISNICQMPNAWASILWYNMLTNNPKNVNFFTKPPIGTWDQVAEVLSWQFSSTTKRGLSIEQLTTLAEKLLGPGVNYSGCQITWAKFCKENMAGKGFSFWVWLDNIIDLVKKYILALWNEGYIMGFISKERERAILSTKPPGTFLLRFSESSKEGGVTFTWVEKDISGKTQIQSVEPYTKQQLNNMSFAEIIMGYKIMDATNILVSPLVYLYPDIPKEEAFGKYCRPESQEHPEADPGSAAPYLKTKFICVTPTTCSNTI

Row | Structure (SMILES) | IC50 [1] [nM] | IC50 [2] [nM]
1 | O=C(N[C@H]1CCCC[C@H]2CC[C@@H](C(=O)N3Cc4cccnc4C3)N2C1=O)c1cc2cc(C(F)(F)P(=O)(O)O)ccc2s1 [Compound 801, ((2-(((3S,6S,10aS)-3-(6,7-dihydro-5H-pyrrolo[3,4-b]pyridine-6-carbonyl)-5-oxodecahydropyrrolo [1,2-a]azocin-6-yl)carbamoyl)benzo [b]thiophen-5-yl)difluoromethyl) phosphonic acid] | 100 to 1000 | 3000 to 30000
2 | O=C(N[C@H]1CCCC[C@H]2CC[C@@H](C(=O)N3CCc4[nH]ncc4C3)N2C1=O)c1cc2cc(C(F)(F)P(=O)(O)O)ccc2s1 [Compound 802, (difluoro(2-(((3S,6S,10aS)-5-oxo-3-(4,5,6,7-tetrahydro-1H-pyrazolo[4,3-c]pyridine-5-carbonyl)decahydropyrrolo[1,2-a]azocin-6-yl)carbamoyl)benzo [b]thiophen-5-yl)methyl) phosphonic acid] | 1000 to 10000 | 300 to 3000
3 | O=C(N[C@H]1CCCC[C@H]2CC[C@@H](C(=O)N3CC(c4ccc[nH]c4=O)C3)N2C1=O)c1cc2cc(C(F)(F)P(=O)(O)O)ccc2s1 [Compound 803, (difluoro(2-(((3S,6S,10aS)-5-oxo-3-(3-(2-oxo-1,2-dihydropyridin-3-yl)azetidine-1-carbonyl)decahydropyrrolo[1,2-a]azocin-6-yl)carbamoyl)benzo [b]thiophen-5-yl)methyl) phosphonic acid] | < 100 | 300 to 3000
4 | N#Cc1cnc(C2CN(C(=O)[C@@H]3CC[C@@H]4CCCC[C@H](NC(=O)c5cc6cc(C(F)(F)P(=O)(O)O)ccc6s5)C(=O)N43)C2)nc1 [Compound 806, ((2-(((3S,6S,10aS)-3-(3-(5-cyanopyrimidin-2-yl)azetidine-1-carbonyl)-5-oxodecahydropyrrolo [1,2-a]azocin-6-yl)carbamoyl)benzo [b]thiophen-5-yl)difluoromethyl) phosphonic acid] | < 100 | 3000 to 30000
5 | Cn1cnnc1C1(O)CN(C(=O)[C@@H]2CC[C@@H]3CCC[C@H](NC(=O)c4cc5cc(C(F)(F)P(=O)(O)O)ccc5s4)C(=O)N32)C1 [Compound 807, (difluoro(2-(((3S,6S,9aS)-3-(3-hydroxy-3-(4-methyl-4H-1,2,4-triazol-3-yl)azetidine-1-carbonyl)-5-oxooctahydro-1H-pyrrolo[1,2-a]azepin-6-yl)carbamoyl)benzo [b]thiophen-5-yl)methyl) phosphonic acid] | 100 to 1000 | 300 to 3000
6 | CCOC1(c2nncn2C)CN(C(=O)[C@@H]2CC[C@@H]3CCC[C@H](NC(=O)c4cc5cc(C(F)(F)P(=O)(O)O)ccc5s4)C(=O)N32)C1 [Compound 808, ((2-(((3S,6S,9aS)-3-(3-ethoxy-3-(4-methyl-4H-1,2,4-triazol-3-yl)azetidine-1-carbonyl)-5-oxooctahydro-1H-pyrrolo[1,2-a]azepin-6-yl)carbamoyl)benzo [b]thiophen-5-yl)difluoromethyl) phosphonic acid] | 100 to 1000 | 3000 to 30000
7 | O=C(N[C@H]1CCC[C@H]2CC[C@@H](C(=O)N3CC(c4nccc(O)n4)C3)N2C1=O)c1cc2cc(C(F)(F)P(=O)(O)O)ccc2s1 [Compound 809, (difluoro(2-(((3S,6S,9aS)-3-(3-(4-hydroxypyrimidin-2-yl)azetidine-1-carbonyl)-5-oxooctahydro-1H-pyrrolo[1,2-a]azepin-6-yl)carbamoyl)benzo [b]thiophen-5-yl)methyl) phosphonic acid] | < 100 | 3000 to 30000
8 | N#Cc1cccc(C2CN(C(=O)[C@@H]3CC[C@@H]4CCC[C@H](NC(=O)c5cc6cc(C(F)(F)P(=O)(O)O)ccc6s5)C(=O)N43)C2)n1 [Compound 811, ((2-(((3S,6S,9aS)-3-(3-(6-cyanopyridin-2-yl)azetidine-1-carbonyl)-5-oxooctahydro-1H-pyrrolo[1,2-a]azepin-6-yl)carbamoyl)benzo [b]thiophen-5-yl)difluoromethyl) phosphonic acid] | < 100 | 300 to 3000
9 | O=C(N[C@H]1CCC[C@H]2CC[C@@H](C(=O)N3CC(c4nccc(C(F)(F)F)n4)C3)N2C1=O)c1cc2cc(C(F)(F)P(=O)(O)O)ccc2s1 [Compound 812, (difluoro(2-(((3S,6S,9aS)-5-oxo-3-(3-(4-(trifluoromethyl)pyrimidin-2-yl)azetidine-1-carbonyl)octahydro-1H-pyrrolo[1,2-a]azepin-6-yl)carbamoyl)benzo [b]thiophen-5-yl)methyl) phosphonic acid] | 100 to 1000 | 3000 to 30000
10 | CC1(C)CC(c2ccccc2)CN1C(=O)[C@@H]1CC[C@@H]2CCCC[C@H](NC(=O)c3cc4cc(C(F)(F)P(=O)(O)O)ccc4s3)C(=O)N21 (stereo partly drawn) [Compound 813, ((2-(((3S,6S,10aS)-3-(2,2-dimethyl-4-phenylpyrrolidine-1-carbonyl)-5-oxodecahydropyrrolo [1,2-a]azocin-6-yl)carbamoyl)benzo [b]thiophen-5-yl)difluoromethyl) phosphonic acid] | 1000 to 10000 | 300 to 3000
11 | CC1(C)C[C@@H](c2ccccc2)CN1C(=O)[C@@H]1CC[C@@H]2CCCC[C@H](NC(=O)c3cc4cc(C(F)(F)P(=O)(O)O)ccc4s3)C(=O)N21 [Compound 814, ((2-(((3S,6S,10aS)-3-((S)-2,2-dimethyl-4-phenylpyrrolidine-1-carbonyl)-5-oxodecahydropyrrolo [1,2-a]azocin-6-yl)carbamoyl)benzo [b]thiophen-5-yl)difluoromethyl) phosphonic acid] | 1000 to 10000 | 300 to 3000
12 | CC1(C)C[C@H](c2ccccc2)CN1C(=O)[C@@H]1CC[C@@H]2CCCC[C@H](NC(=O)c3cc4cc(C(F)(F)P(=O)(O)O)ccc4s3)C(=O)N21 [Compound 815, ((2-(((3S,6S,10aS)-3-((R)-2,2-dimethyl-4-phenylpyrrolidine-1-carbonyl)-5-oxodecahydropyrrolo [1,2-a]azocin-6-yl)carbamoyl)benzo [b]thiophen-5-yl)difluoromethyl) phosphonic acid] | 1000 to 10000 | 300 to 3000
13 | O=C(N[C@H]1CCCC[C@H]2CC[C@@H](C(=O)N3CC(c4ccc(=O)[nH]c4)C3)N2C1=O)c1cc2cc(C(F)(F)P(=O)(O)O)ccc2s1 [Compound 816, (difluoro(2-(((3S,6S,10aS)-5-oxo-3-(3-(6-oxo-1,6-dihydropyridin-3-yl)azetidine-1-carbonyl)decahydropyrrolo[1,2-a]azocin-6-yl)carbamoyl)benzo [b]thiophen-5-yl)methyl) phosphonic acid] | 100 to 1000 | 3000 to 30000
14 | O=C(N[C@H]1CCC[C@H]2CC[C@@H](C(=O)N3CC(c4ncc(C5CC5)cn4)C3)N2C1=O)c1cc2cc(C(F)(F)P(=O)(O)O)ccc2s1 [Compound 817, ((2-(((3S,6S,9aS)-3-(3-(5-cyclopropyl-pyrimidin-2-yl)azetidine-1-carbonyl)-5-oxooctahydro-1H-pyrrolo[1,2-a]azepin-6-yl)carbamoyl)benzo [b]thiophen-5-yl)difluoromethyl) phosphonic acid] | 1000 to 10000 | 3000 to 30000
15 | Cc1ccnnc1C1CN(C(=O)[C@@H]2CC[C@@H]3CCC[C@H](NC(=O)c4cc5cc(C(F)(F)P(=O)(O)O)ccc5s4)C(=O)N32)C1 [Compound 818, (difluoro(2-(((3S,6S,9aS)-3-(3-(4-methylpyridazin-3-yl)azetidine-1-carbonyl)-5-oxooctahydro-1H-pyrrolo[1,2-a]azepin-6-yl)carbamoyl)benzo [b]thiophen-5-yl)methyl) phosphonic acid] | 100 to 1000 | 3000 to 30000
16 | O=C(N[C@H]1CCC[C@H]2CC[C@@H](C(=O)N3CC(c4cnccc4C(F)F)C3)N2C1=O)c1cc2cc(C(F)(F)P(=O)(O)O)ccc2s1 [Compound 819, ((2-(((3S,6S,9aS)-3-(3-(4-(difluoromethyl)pyridin-3-yl)azetidine-1-carbonyl)-5-oxooctahydro-1H-pyrrolo[1,2-a]azepin-6-yl)carbamoyl)benzo [b]thiophen-5-yl)difluoromethyl) phosphonic acid] | 100 to 1000 | 300 to 3000
17 | Cc1ccc(C#N)nc1C1CN(C(=O)[C@@H]2CC[C@@H]3CCC[C@H](NC(=O)c4cc5cc(C(F)(F)P(=O)(O)O)ccc5s4)C(=O)N32)C1 [Compound 820, ((2-(((3S,6S,9aS)-3-(3-(6-cyano-3-methylpyridin-2-yl)azetidine-1-carbonyl)-5-oxooctahydro-1H-pyrrolo[1,2-a]azepin-6-yl)carbamoyl)benzo [b]thiophen-5-yl)difluoromethyl) phosphonic acid] | 100 to 1000 | 3000 to 30000
